Earlier results in patent publication US4981867A, “Treatment of tremor using compounds that depress calcium currents in thalamic and other central nervous system neurons” (The Board of Trustees of the Leland Stanford Junior …, priority 1989, dated 1991).

Tested on: essential-familial tremor
Conditions: stated as known in background

SMILES	suppression of essential-familial tremor
CCC1(c2ccccc2)C(=O)NCNC1=O [primidone]	can be suppressed
CC(C)NCC(O)COc1cccc2ccccc12 (centres unmarked) [propranolol]	can be suppressed
